Reference: patent publication US20090143279A1 (priority 2007, published 2009)
Several values for one entry are separate records, joined by “and”; a condition that tells them apart may be missing. Identical values can stand only once. Like-named read-outs stand apart in the source and are kept apart here.

Key:
[1] = tested on: mitochondrial membrane potential; type: cell-based, mouse
reactive oxygen species = type: cell-based, mouse
OXPHOS gene expression = type: cell-based, mouse
cytochrome c = type: cell-based, mouse
[2] = tested on: cellular dehydrogenase activity
nuOXPHOS transcripts = type: cell-based, mouse; settings: for nucOXPHOS Z: Table 7, C2C12 myotubes, 48 h, composite Z-score
mtOXPHOS transcripts = type: cell-based, mouse; settings: for mito-OXPHOS Z: Table 7, C2C12 myotubes, 48 h, composite Z-score
[3] = Table 6, C2C12 myotubes, 48 h, composite Z-score
[4] = composite Z-score vs DMSO, Conc 20 μM
[5] = 20 μM, composite Z-score vs DMSO
[6] = Table 3, differentiated C2C12 myotubes, 48 h treatment, composite Z-score vs DMSO
[7] = Table 5, C2C12 myotubes, 48 h, composite Z-score
[8] = retest at 20 nM to 20 μM, FIG. 6a
[9] = normalized composite Z-score vs mock-treated (DMSO) wells, Conc 20 μM

CCOC(=O)N1CCC(=C2c3ccc(Cl)cc3CCc3cccnc32)CC1 [loratadine]
ΔΨm [1]: 0.191
ROS (reactive oxygen species): 0.764
GE-HTS (OXPHOS gene expression): −0.306
cyt c (cytochrome c): −0.317
Viability (C2C12 myotubes): 0.552
MTT [2]: −1.609

CC[C@@]1(O)C[C@H](O[C@H]2C[C@H](N(C)C)[C@H](O)[C@H](C)O2)c2c(cc3c(c2O)C(=O)c2c(O)ccc(O)c2C3=O)[C@H]1C(=O)OC [Pyrromycin, reference compound]
nucOXPHOS Z (nuOXPHOS transcripts): −2.89
mito-OXPHOS Z (mtOXPHOS transcripts): −2.67

CCN(CC)C(=S)SSC(=S)N(CC)CC [Disulfiram, reference compound]
nucOXPHOS Z (nuOXPHOS transcripts): −4.10
mito-OXPHOS Z (mtOXPHOS transcripts): 0.93

CC(C)=CCC[C@]1(C)C=Cc2c(O)c3c(c(CC=C(C)C)c2O1)O[C@]12C(=C[C@@H]4CC1C(C)(C)O[C@@]2(C/C=C(/C)C(N)=O)C4=O)C3=O [gambogic acid amide, reference compound]
nucOXPHOS Z (nuOXPHOS transcripts): −4.01
mito-OXPHOS Z (mtOXPHOS transcripts): −2.68

CCN(CC)CCCC(C)Nc1c2ccc(Cl)cc2nc2ccc(OC)cc12 (stereo not drawn) [Quinacrine, reference compound]
nucOXPHOS Z (nuOXPHOS transcripts): −2.65
mito-OXPHOS Z (mtOXPHOS transcripts): −2.81

COc1ccc2c(c1)OCC(Cc1ccc(OC)c(OC)c1)C2=O (stereo not drawn) [deoxysappanone (B) trimethyl ether, reference compound]
ROS Zscore (reactive oxygen species; [3]): 1.064
GEHTS_Zscore (OXPHOS gene expression; [3]): 0.768

O=c1cccc2n1C[C@@H]1CNC[C@H]2C1 [cytisine]
ROS (reactive oxygen species): 1.150
GE-HTS (OXPHOS gene expression): 0.025
cyt c (cytochrome c): 0.186 and 0.095

CC(C)[C@]12O[C@H]1[C@@H]1O[C@@]13[C@@]1(C)CCC4=C(COC4=O)[C@@H]1C[C@@H]1O[C@@]13C2=O [Triptonide, reference compound]
nucOXPHOS Z (nuOXPHOS transcripts): −2.18
mito-OXPHOS Z (mtOXPHOS transcripts): 5.02

Nc1cc(N2CCCCC2)nc(N)[n+]1[O-] [Minoxidil, reference compound]
nucOXPHOS Z (nuOXPHOS transcripts): 2.38
mito-OXPHOS Z (mtOXPHOS transcripts): 1.37

sappanone (A) dimethyl ether [reference compound]
ROS Zscore (reactive oxygen species; [3]): −2.429
GEHTS_Zscore (OXPHOS gene expression; [3]): 0.524

dimenhydrinate
ΔΨm [1, 4]: −0.890
ROS (reactive oxygen species; [4]): 0.339
GE-HTS (OXPHOS gene expression; [4]): −0.225
nucOX (nuOXPHOS transcripts; [4]): −0.086
MTT [2, 4]: −1.505

COc1ccc2c(c1)OC[C@@H](Cc1ccc(OC)c(OC)c1)[C@H]2O [tetrahydrosappanone (A) trimethyl ether, reference compound]
ROS Zscore (reactive oxygen species; [3]): 0.274
GEHTS_Zscore (OXPHOS gene expression; [3]): 0.583

COc1ccc2c(c1)c(CC(=O)O)c(C)n2C(=O)c1ccc(Cl)cc1 [Indomethacin, reference compound]
nucOXPHOS Z (nuOXPHOS transcripts): 1.32
mito-OXPHOS Z (mtOXPHOS transcripts): 2.40

CC(=O)Nc1ccc(O)cc1 [acetaminophen]
ROS (reactive oxygen species): 0.527
mitoOX (mtOXPHOS transcripts): 0.317

CC(=O)CCCCn1c(=O)c2c(ncn2C)n(C)c1=O [pentoxifylline]
ΔΨm [1, 5]: −0.696
ROS (reactive oxygen species; [5]): 0.182
GE-HTS (OXPHOS gene expression; [5]): 0.062
nucOX (nuOXPHOS transcripts; [5]): 0.292
cyt c (cytochrome c; [5]): −0.798
Viability (C2C12 myotubes; [5]): 0.375
MTT [2, 5]: −0.600

COc1ccc2c(c1)OCC(=Cc1ccc(O)c(O)c1)C2=O [sappanone (A) 7-methyl ether, reference compound]
ROS Zscore (reactive oxygen species; [3]): −1.493
GEHTS_Zscore (OXPHOS gene expression; [3]): 1.410

COC(=O)Nc1nc2cc(C(=O)c3cccs3)ccc2[nH]1 [Nocodazole, methyl[5-(2-thienylcarbonyl)-1H-benzimidazol-2-yl]carbamate, reference compound]
ROS Zscore (reactive oxygen species; [6]): −1.099
ROS Zscore (reactive oxygen species; [7]): −1.099
ROS levels (reactive oxygen species; primary screen, in words): suppressing ROS levels
dose at which ROS levels decreased (reactive oxygen species; [8]): 2 µM
GEHTS_Zscore (OXPHOS gene expression; [6]): 2.675
GEHTS_Zscore (OXPHOS gene expression; [7]): 2.675
OXPHOS expression (OXPHOS gene expression; primary screen, in words): boost OXPHOS expression
dose at which OXPHOS expression increased (OXPHOS gene expression; [8]): 2 µM

COc1cccc2c1C(=O)c1c(O)c3c(c(O)c1C2=O)C[C@@](O)(C(=O)CO)C[C@@H]3O[C@H]1C[C@H](N)[C@H](O)[C@H](C)O1 [Doxorubicin, reference compound]
nucOXPHOS Z (nuOXPHOS transcripts): −1.85
mito-OXPHOS Z (mtOXPHOS transcripts): 2.57

CC[C@H]1CN2CCc3cc(OC)c(OC)cc3[C@@H]2C[C@@H]1C[C@H]1NCCc2cc(OC)c(OC)cc21 [Emetine, reference compound]
nuOXPHOS expression (nuOXPHOS transcripts): preferentially increase
cyt c (cytochrome c): −1.644
cyt c (composite Z-score) (cytochrome c): −0.191

O=c1[nH]cc(F)c(=O)[nH]1 [Fluorouracil, reference compound]
nucOXPHOS Z (nuOXPHOS transcripts): 1.50
mito-OXPHOS Z (mtOXPHOS transcripts): 1.55

C=C(C)[C@@H]1CC[C@]2(CO)CC[C@]3(C)[C@H](CC[C@@H]4[C@@]5(C)CC[C@H](O)C(C)(C)[C@@H]5CC[C@]43C)[C@@H]12 [betulin]
nucOX (nuOXPHOS transcripts): 0.598

CC[C@@]1([C@@H]2O[C@@H]([C@H]3O[C@@](O)(CO)[C@H](C)C[C@@H]3C)C[C@@H]2C)CC[C@H]([C@]2(C)CC[C@]3(C[C@H](O)[C@@H](C)[C@@H]([C@@H](C)[C@@H](OC)[C@H](C)C(=O)O)O3)O2)O1 [monensin, reference compound]
nucOXPHOS Z (nuOXPHOS transcripts): 0.70
mito-OXPHOS Z (mtOXPHOS transcripts): −4.13

CC1=CC(=O)c2ccccc2C1=O [Menadione, reference compound]
nucOXPHOS Z (nuOXPHOS transcripts): −3.40
mito-OXPHOS Z (mtOXPHOS transcripts): 2.13

CCCCCCCCCCCCCCCC[N+](C)(C)C.[Br-] [cetrimonium bromide, reference compound]
nucOXPHOS Z (nuOXPHOS transcripts): −2.70
mito-OXPHOS Z (mtOXPHOS transcripts): 1.66

COc1ccc2c(c1)OCC(Cc1ccc(OC(C)=O)c(OC)c1)C2=O (stereo not drawn) [deoxysappanone (B) 7,3′-dimethyl ether acetate, reference compound]
ROS Zscore (reactive oxygen species; [3]): −1.894
GEHTS_Zscore (OXPHOS gene expression; [3]): −0.723

O=C1C[C@@H](c2ccc(O)cc2)Oc2cc(O)ccc21 [liquiritigenin]
ΔΨm [1, 9]: 1.004
ROS (reactive oxygen species; [9]): 0.301
GE-HTS (OXPHOS gene expression; [9]): −0.749
mitoOX (mtOXPHOS transcripts; [9]): −1.069
cyt c (cytochrome c; [9]): 0.523
Viability (C2C12 myotubes; [9]): 1.353
MTT [2, 9]: −0.429

COc1cc2c(c(OC)c1OC)-c1ccc(OC)c(=O)cc1[C@@H](NC(C)=O)CC2 [Colchicine, reference compound]
ROS levels (reactive oxygen species): did not display the same decrease in ROS levels
OXPHOS expression (OXPHOS gene expression): modest increase
nucOX (nuOXPHOS transcripts): 0.807 and 1.549

COC1=CC(=O)C[C@@H](C)[C@]12Oc1c(Cl)c(OC)cc(OC)c1C2=O [griseofulvin, reference compound]
ROS Zscore (reactive oxygen species; [7]): 0.371
ROS levels (reactive oxygen species; primary screen, in words): did not display the same decrease in ROS levels
GEHTS_Zscore (OXPHOS gene expression; [7]): 2.199
OXPHOS expression (OXPHOS gene expression; primary screen, in words): modest increase

N=C1C=CC(=C(c2ccc(N)cc2)c2ccc(N)cc2)C=C1 [Pararosaniline, reference compound]
nucOXPHOS Z (nuOXPHOS transcripts): −2.25
mito-OXPHOS Z (mtOXPHOS transcripts): −5.43

CCCSc1ccc2nc(NC(=O)OC)[nH]c2c1 [albendazole, reference compound]
ROS Zscore (reactive oxygen species): −1.434
GEHTS_Zscore (OXPHOS gene expression): 2.379
cyt c (cytochrome c): −0.280

O=C1C(Cl)=C(Cl)C(=O)C(Cl)=C1Cl [Chloranil, reference compound]
nucOXPHOS Z (nuOXPHOS transcripts): −2.45
mito-OXPHOS Z (mtOXPHOS transcripts): 2.50

OCCN1CCN(CCCN2c3ccccc3Sc3ccc(Cl)cc32)CC1 [Perphenazine, reference compound]
decline of nuOXPHOS expression (nuOXPHOS transcripts; 20 μM, within the first hour of treatment): 21%

COc1ccc2c(c1)OC/C(=C/c1ccc(OC)c(OC)c1)C2=O [sappanone (A) trimethyl ether, reference compound]
ROS Zscore (reactive oxygen species; [3]): 0.1195
GEHTS_Zscore (OXPHOS gene expression; [3]): 2.376

CN(C)CCCN1c2ccccc2Sc2ccc(C(F)(F)F)cc21 [triflupromazine]
ROS (reactive oxygen species): 1.208
GE-HTS (OXPHOS gene expression): 0.225
nucOX (nuOXPHOS transcripts): 0.404

CN(C)C(=O)Oc1cccc([N+](C)(C)C)c1 [Neostigmine, reference compound]
nucOXPHOS Z (nuOXPHOS transcripts): −3.54
mito-OXPHOS Z (mtOXPHOS transcripts): −3.45

C[C@H]1C/C=C/[C@H]2[C@@H]3O[C@]3(C)[C@@H](C)[C@H]3[C@H](Cc4ccccc4)NC(=O)[C@]32OC(=O)O/C=C/[C@@](C)(O)C1=O [cytochalasin e, reference compound]
ROS Zscore (reactive oxygen species; [6]): −2.109
GEHTS_Zscore (OXPHOS gene expression; [6]): 2.827

podophyllotoxin acetate [reference compound]
ROS Zscore (reactive oxygen species; [6]): −1.656
GEHTS_Zscore (OXPHOS gene expression; [6]): 3.506
